Here are results for 13 molecules from PubChem BioAssay (NCI).

What all share (assay): growth of human tumour cells (NCI), 48 h
In assay [1] the test system is CCRF-CEM leukemia.
Assay [2] has as its system HT29 colon.
The test system of assay [3] is EKVX NSCLC.
The subject of assay [4] is CAKI-1 renal.
Assay [5] relates to HOP-62 NSCLC.
The test system of assay [6] is NCI-H23 lung.
For assay [7], the system named is HS 578T breast.
The test system of assay [8] is M14 melanoma.
In assay [9] the test system is KM12 colon.
The test system of assay [10] is MDA-N.
The test system of assay [11] is SNB-75 CNS.

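All cell lines were grown in 96-well plates and treated with compound for 48 hours. TGI denotes the concentration required for complete inhibition of growth.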 A value given as a limit tells only on which side of the number the result lay.

On to `CCN(CC)CCNc1ccc2nnn3c4ccc(OC(C)=O)cc4c(=O)c1c23`, for which the TGI in assay [1] amounted to 3.2 µM; in assay [2], 11.4 µM; in assay [3], 19.3 µM; in assay [4] it was 3.31 µM; in [5] it was 12.5 µM; in [6] it was 18.9 µM. Also, the TGI amounted to 19.1 µM in assay [7], 21 µM in assay [8], 15.4 µM in assay [9] and 17.8 µM in [10].

Consider `CN1CCN(CCCCNc2cc3c4ccccc4c(NCCCCN4CCN(C)CC4)cc3c3ccccc23)CC1`, for which the TGI in assay [11] came out at 7.8 µM; in assay [1], 3.07 µM; in assay [2], 4.19 µM; in assay [3], 18.7 µM; in assay [4], 25.6 µM; in [5] it was 7.72 µM. Further, the TGI in assay [7] was 5.65 µM; in [8], 2.16 µM; in assay [9] it was 3.06 µM; in assay [10], 0.977 µM.

As to `CCOC(=S)SC/C(=N\OC(C)(C)OC)c1ccccc1`, the TGI in assay [1] was 44.5 µM; in assay [2], 58.3 µM; in assay [3] it was greater than 100 µM; in [4] it was greater than 100 µM; in assay [5], greater than 100 µM; in [6], greater than 100 µM. Also, the TGI in assay [7], in assay [8], in assay [9] and in assay [10] was greater than 100 µM throughout.

Consider `C[n+]1c(-c2ccc(/C=N/Nc3n[nH]c(=S)n3N/N=C/c3ccc(-c4cn5ccccc5[n+]4C)cc3)cc2)cn2ccccc21`, for which the TGI in [11], in assay [1], in assay [2], in [3], in [5] and in assay [7] was greater than 100 µM each time. The TGI in assay [8], in assay [9] and in assay [10] was greater than 100 µM in each case.

`COc1cc(OC)c(NC2=NCCO2)cc1Cl`: the TGI is greater than 100 µM in assay [11]; greater than 100 µM in assay [1]; 47.8 µM in assay [2]; greater than 100 µM in assay [3]; greater than 100 µM in assay [5]; 58.1 µM in assay [6]. The TGI in [7] was greater than 100 µM; in [8] it was 97.8 µM; in [9] it was 39.1 µM; in assay [10], 32.3 µM.

In the case of `Cc1ccc(N2C(=O)C(O)=C(C(=O)C(C)(C)C)C2c2ccc([N+](=O)[O-])cc2)cc1` (stereo not drawn), the TGI in assay [1] was greater than 100 µM; in assay [2], 37.3 µM; in assay [3] it was 67.1 µM; in assay [4], 16.5 µM; in assay [5], 49.2 µM; in assay [6], 35.2 µM. Besides, the TGI in [7] stood at 45.3 µM; in [8] it was 46.2 µM; in assay [9], 67.3 µM; in assay [10], 69.2 µM.

As for `N#CCCCCC12C3C(=O)N(c4ccccc4)C(=O)C3ON1O[C@@H]1C(=O)N(c3ccccc3)C(=O)[C@@H]12` (stereo partly drawn), the TGI in assay [1], in assay [2], in [3], in assay [4], in [5] and in assay [6] was greater than 100 µM throughout. The TGI in assay [7], in assay [8], in [9] and in assay [10] was greater than 100 µM each time.

Consider `CNc1nc(=O)c(C#N)c(-c2ccc(C)cc2)s1`, for which the TGI in [11], in [1], in [2], in [3], in assay [4] and in [6] was greater than 100 µM throughout. Moreover, the TGI in assay [8], in assay [9] and in [10] was greater than 100 µM in each case.

Consider `C/C(=N\Nc1ncnc2ccccc12)c1ccccn1`, for which the TGI in assay [11] was 39.7 µM; in assay [2] it was greater than 46.6 µM; in assay [3], greater than 52.6 µM; in assay [4] it was 1.67 µM; in assay [5], 1.07 µM; in assay [6] it was 16.4 µM. In addition, the TGI in assay [7] amounted to 47.5 µM; in assay [8] it was 33 µM; in assay [9] it was 22.1 µM; in assay [10], 27.5 µM.

On to `Cc1cc(O)c(/C=N/C(=O)NN)c(=O)o1`, for which the TGI in assay [11], in assay [1], in assay [3], in assay [4], in assay [5] and in assay [6] was greater than 100 µM throughout. In addition, the TGI in assay [7], in assay [8], in [9] and in assay [10] was greater than 100 µM throughout.

`S=C1NC2=C(COC/C2=C\c2ccccc2Cl)C(c2ccccc2Cl)N1` (stereo not drawn): the TGI in assay [11] is greater than 100 µM; in assay [1], 45.1 µM; in assay [3], greater than 100 µM; in assay [4] it was greater than 100 µM; in [5], greater than 100 µM; in [6], greater than 100 µM. Moreover, the TGI in assay [7] is greater than 100 µM; in [8], greater than 100 µM; in assay [9], 28.6 µM; in assay [10], greater than 100 µM.

As for `CC[C@@]1(O)C(=O)OCc2c1cc1n(c2=O)Cc2c-1nc1ccccc1c2/C=N\NC(=O)C(N)=O`, the TGI was greater than 26 µM in assay [11]; greater than 100 µM in assay [2]; greater than 100 µM in assay [3]; 17.5 µM in assay [4]; greater than 45.1 µM in [5]; 3.67 µM in [6]. Further, the TGI in assay [7] was greater than 100 µM; in [8] it was 14.3 µM; in [9] it was greater than 100 µM; in assay [10], greater than 100 µM.

`CCOc1ccc(C(c2c(O)c3ccccc3oc2=O)c2c(O)c3ccccc3oc2=O)cc1`: the TGI in assay [1], in assay [2], in assay [3], in assay [4], in assay [5] and in [6] was greater than 100 µM each time. The TGI in assay [7], in assay [8], in [9] and in [10] was greater than 100 µM each time.
